The text below walks through data of patent publication US20030113352A1, “Neutralization of stratum corneum to treat hyperkeratotic skin lesions” (The Regents of the University of California, priority 2001, published 2003).

For series [1], the system named is hairless mice. In words: Skin surface pH after topical treatment or buffer exposure. The series is classed as in vivo, hairless mice (Skh1/Hr).
Description: (§2) The mice were anesthetized with chloral hydrate (Morton Grove Pharmaceuticals, Morton Grove, Ill., USA). After 3 hours immersion at 37° C., the mice were removed, and the remaining buffer was gently blotted off. After 15 minutes, barrier function was determined by measurement of transepidermal water loss(TEWL) with an electrolytic water analyzer (MEECO®, Warrington, Pa.). Surface pH was measured with a flat, glass surface electrode from Mettler-Toledo (Giessen, Germany), attached to a pH meter (Skin pH Meter PH 900, Courage& Khazaka, Cologne, Germany). Individually tested sites were covered with Hilltop Chambers (HtC, nominal volume 200 mL), which were reapplied following each indvidual measurement.
Series [2] concerns hairless mice. Description: Stratum corneum integrity: TEWL after sequential tape strippings. Format: in vivo, hairless mice (Skh1/Hr).
Description: After 15 minutes, barrier function was determined by measurement of transepidermal water loss(TEWL) with an electrolytic water analyzer (MEECO®, Warrington, Pa.). […] Individually tested sites were covered with Hilltop Chambers (HtC, nominal volume 200 mL), which were reapplied following each indvidual measurement.
(§3) The stratum corneum was removed by several strippings with adhesive tape (Tesatape, Beiersdorf, Germany) inducing an increase in TEWL levels above baseline (from 2-5 to approximately 10-15 g/m^2/h). Two sites were prepared on each animal, and TEWL and surface pH were measured at 0, 2, 5 and 24 hrs following the stripping and the applications of inhibitors.
Series [3] deals with hairless mice. Description: Stratum corneum cohesion: protein removed per D-Squame stripping. Format: in vivo, hairless mice (Skh1/Hr).
Description: Before stripping the stratum corneum, the skin surface was cleaned with a single ethanol wipe. D-Squame tapes then were placed sequentially to the test areas for about 3 sec each, removed with forceps, and stored in glass scintillation vials at 5° C.
The amount of protein removed per D-Squame was measured, by a modification of the method of Dreher, F., et al., Acta Derm. […] The protein content per stripping was determined with the Bio-Rad protein assay kit. […] Each tape was incubated with 1 M NaOH for 1 hour at 37° C. in an incubator shaker at 80 rpm, and neutralized thereafter with 1 mL of 1 M HCl in the scintillation vials. Subsequently, 0.2 mL of this solution was incubated in 0.6 ml distilled water plus 0.2 mL of the Bio-Rad protein dye for 5 minutes in borosililate tubes. […] An empty D-Squame tape, as well as distilled water incubated with Bio-Rad dye, served as negative controls. The amount of calculated protein was then normalized to skin surface area (μg/cm^2).
Series [4] deals with hairless mice. In words: Permeability barrier function by transepidermal water loss (TEWL). The series is classed as in vivo, hairless mice (Skh1/Hr).
Description: as §2
In series [5] the test system is murine skin. Description: Desmosome density and desmoglein-1 staining in lower stratum corneum. The series is classed as in vivo, mouse. As to conditions: for density of desmosomes in the lower stratum corneum and at the stratum corneum-stratum granulosum interface: inhibitor-treated vs vehicle sites. The source says:
(§1) Ultrastructural methods: Freshly obtained biopsies from mouse skin were fixed directly in modified Karnovsky's fixative, postfixed with reduced osmium tetroxide (OSO4) and then imbedded in an Epon-epoxy mixture. For visualization of lipid-enriched, lamellar bilayer structures, some samples were post fixed in ruthenium tetroxide (RuO4). Sections were cut on a Reichert Ultracut E microtome, counterstained with uranyl acetate and lead citrate, and viewed in a Zeiss 10 CR electron microscope, operated at 60 kV.
Immunofluorescence Staining: Hairless mouse skin was excised with a 6 mm punch biopsy, and the subcutaneous fat was removed. Tissue sections were incubated for 1 hour in blocking buffer (1% bovine serum albumin, 0.1% cold water fish gelatin in phosphate buffered saline (PBS)), and were then incubated for 1 hour further at room temperature with 1:500 dilution of polyclonal rabbit anti-mouse desmoglein 1 antibody (gift of Dr. John Stanley, University of Pennsylvania) diluted in blocking buffer. The tissue was then washed with blocking buffer and incubated one hour at room temperature with fluoroscein, isothiocyanate-conjugated, goat anti-rabbit IgG antibody (DAKO, Carpinteria, Calif., USA), diluted in blocking buffer. Either preincubation of DSG 1 antibody with DSG 1-recombinant protein (gift of Dr. Masayuki Amagai, Keio University, Tokyo, Japan), or omission of the DSG 1 primary antibody eliminated specific staining.

For series [6], the system named is murine skin. The following applies: 4 mg/mL topical, shown previously; cited from earlier work.
The next series deals with T1, NHE1 antiporter (Homo sapiens, UniProt P19634).
T1 construct: endogenous in cells; host or cells: cultured human keratinocytes (CHK)
T1 sequence (P19634 whole entry): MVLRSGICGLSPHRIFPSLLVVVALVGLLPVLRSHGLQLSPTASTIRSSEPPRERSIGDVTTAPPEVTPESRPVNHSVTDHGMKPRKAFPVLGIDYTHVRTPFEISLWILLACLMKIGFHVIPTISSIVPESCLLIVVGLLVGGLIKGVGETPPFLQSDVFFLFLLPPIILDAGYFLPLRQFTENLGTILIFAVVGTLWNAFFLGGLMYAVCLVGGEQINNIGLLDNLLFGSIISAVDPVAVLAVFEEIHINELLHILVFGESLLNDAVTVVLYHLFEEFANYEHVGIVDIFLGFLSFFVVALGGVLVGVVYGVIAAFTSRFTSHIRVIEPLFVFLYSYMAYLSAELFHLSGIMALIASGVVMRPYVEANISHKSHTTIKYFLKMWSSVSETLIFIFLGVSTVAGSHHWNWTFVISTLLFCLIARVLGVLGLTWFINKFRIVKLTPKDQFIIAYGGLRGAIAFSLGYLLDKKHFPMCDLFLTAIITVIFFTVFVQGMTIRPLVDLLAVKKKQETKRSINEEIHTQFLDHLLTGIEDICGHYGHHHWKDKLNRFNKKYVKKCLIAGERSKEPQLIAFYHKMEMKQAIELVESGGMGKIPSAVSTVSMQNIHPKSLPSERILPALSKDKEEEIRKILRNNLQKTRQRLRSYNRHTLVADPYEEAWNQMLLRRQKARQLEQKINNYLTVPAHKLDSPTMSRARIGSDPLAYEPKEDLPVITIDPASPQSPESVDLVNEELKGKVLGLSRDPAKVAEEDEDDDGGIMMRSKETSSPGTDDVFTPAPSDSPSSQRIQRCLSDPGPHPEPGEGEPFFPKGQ
In words: Intracellular pH (BCECF) and recovery from acid load in cultured human keratinocytes. Format: cell-based. Here is the method: Assessment of Intracellular pH: Keratinocytes were plated on glass coverslips and grown in Cascade 154 medium containing 0.07 mM Ca^2+. The coverslips were incubated in 145 μM BCECF-AM ester at room temperature for 5 minutes, then rinsed for 30 minutes in buffer containing either 28 mM HEPES, 136 mM NaCl, 5 mM KCl, 0.07 mM CaCl2 and 10 mM glucose, pH 7.4 or Ringer solution (136 mM NaCl, 5 mM KCl, 0.03 mM Ca2+, 28 mM TES, 14 mM Na HCO3, NaOH to adjust the pH to 7.4, and 10 mM glucose (pH 7.4, 330 mOsm)). BCECF-AM-ester is membrane permeable; once inside cells it is de esterified by endogenous […], trapping flourescently-active, acidic BCECF inside the cells. The BCECF-loaded cells were placed in a superfusion chamber mounted on a inverted microscope (Nikon). The keratinocytes were superfused with one of the two solutions, and baseline intracellular pH was monitored constantly using a ratiometric method (Paradiio et al (1987) Am J. Physiol. 253:C30-6). […] The resultant fluorescence (at 530 nm) from each stimulating wavelength was measured with a CCD camera (Hamamatsu) digitally ratioed, and stored using a software program (Fluor, Universal Imaging Co., West Chester, Pa.). Whereas fluorescence emission at 440 nm excitation remains constant, indicative of dye concentration, emission from 490 nm varies proportionally with changes of intracellular pH. […]

Series [7] concerns murine skin. In words: Stratum corneum pH after tape-stripping with buffers and NHE1 inhibitors. Format: in vivo, mouse.
Description: The acidification experiments were performed with 10 mM HEPES-buffer, adjusted to either pH 5.5 or pH 7.4 as follows: One flank of anesthetized mice was immersed on a mesh netting, as described previously (Lee, S. H., et al., J. Clin. Invest. 89:530-8 (1992)). […] After 3 hours immersion at 37° C., the mice were removed, and the remaining buffer was gently blotted off. After 15 minutes, barrier function was determined by measurement of transepidermal water loss(TEWL) with an electrolytic water analyzer (MEECO®, Warrington, Pa.). Surface pH was measured with a flat, glass surface electrode from Mettler-Toledo (Giessen, Germany), attached to a pH meter (Skin pH Meter PH 900, Courage& Khazaka, Cologne, Germany). Individually tested sites were covered with Hilltop Chambers (HtC, nominal volume 200 mL), which were reapplied following each indvidual measurement.
as §3
For a further series, the system named is mouse skin. In words: Electron microscopy of lamellar bodies and extracellular lipid processing. The series is classed as in vivo.
Description: as §1

Series [8] deals with hairless mice. Description: Barrier recovery (TEWL) after tape-stripping. As to conditions: for barrier recovery after tape-stripping: NHE1 inhibitors, general statement.
Description: Permeability Barrier Studies: Normal hairless mice were treated topically twice a daily for three days with BPB (4 mg/mL) or MJ33 (4 mg/mL) both in propylene glycol:ethanol (7:3 v/v) vehicle, or the vehicle alone on an area of 5-6 cm on the backs and flanks as described previously (Mao-Qiang, M., et al., J. Lipid Res. 36:1926-35 (1995)). […] The acidification experiments were performed with 10 mM HEPES-buffer, adjusted to either pH 5.5 or pH 7.4 as follows: One flank of anesthetized mice was immersed on a mesh netting, as described previously (Lee, S. H., et al., J. Clin. Invest. 89:530-8 (1992)). The mice were anesthetized with chloral hydrate (Morton Grove Pharmaceuticals, Morton Grove, Ill., USA). After 3 hours immersion at 37° C., the mice were removed, and the remaining buffer was gently blotted off. After 15 minutes, barrier function was determined by measurement of transepidermal water loss(TEWL) with an electrolytic water analyzer (MEECO®, Warrington, Pa.). […] Individually tested sites were covered with Hilltop Chambers (HtC, nominal volume 200 mL), which were reapplied following each indvidual measurement.
as §3
Hairless mice were tape stripped to TEWL of 7-9 g/m^2/h. […] Control areas were covered with Hilltop Chambers containing 10 mM HEPES buffer adjusted to pH 7.4 or pH 5.5 as appropriate. TEWL was measured at 0, 2, 5, and 24 hours post tape-strip. The results are reported as percent barrier recovery from the initial induced defect.
The mark [9] stands for this setting: fatty acid co-applied with BPB, three days.
[10] abbreviates: fifth strip, fatty acid co-applied with BPB.
Setting [11] is: five hours post tape-strip, in pH 7.4 buffer, buffer alone 38%.
[12] abbreviates: two hours post tape-strip, in pH 7.4 buffer, buffer alone 21%.

For the molecule `CCCCCCCCCCCCCCCCCC(=O)O` [stearic acid], the “pH of the stratum corneum” value in the series on hairless mice [1] (setting [9]) is 5.73+/−0.09. Besides, the “TEWL after tape strips” value with hairless mice [2] (setting [10]) is on record as “about 25 g/m^2/h”. Moreover, in the series on hairless mice [3] (setting [10]), the protein lost entry is given as “about 25 μg protein/cm^2”.

`CCCCCCCCCCCCCCCCOCC(COCC(F)(F)F)OP(=O)(O)OC` (centres unmarked) [MJ33, 1-Hexadecyl-3-triflouroethylglycero-sn-2-phosphomethanol]: the “stratum corneum surface pH” value in the series with hairless mice [1] (MJ33 4 mg/mL vs vehicle alone (5.60)) is 5.87+/−0.06. The “fold increase in TEWL rates” value in the series on hairless mice [4] (by day three, vs vehicle) is given as 2-3 fold. In addition, the TEWL rates with hairless mice [4] (day three, repeated applications, vehicle 2.97) is recorded as 5.19+/−.81. In addition, the “TEWL after tape strippings” value in the series on hairless mice [2] (day 3, after three consecutive tape strippings (Example 1)) is listed as about 75 g/m^2/hr. Besides, the “TEWL after tape strips” value with hairless mice [2] (three sequential tape-strippings, MJ33 alone (Example 5)) is recorded as about 75 g/m^2/h. Further, the protein lost result with hairless mice [3] (day 3, after three consecutive tape-strippings (Example 1)) is “over 50 μg protein/cm^2”; with hairless mice [3] (three sequential strippings, MJ33 alone (Example 5)), “about 50 μg protein/cm^2”. In the series with murine skin [5], the “density of desmosomes in the lower stratum corneum and at the stratum corneum-stratum granulosum interface” value was “dramatic reduction”. Besides, the “toxicity of the doses employed” value with murine skin [6] is given as “non-toxic”.

With `CCCCCCCCCCCCCCCC(=O)O` [palmitic acid], in the series with hairless mice [1] (setting [9]), the “pH of the stratum corneum” value is reported as 5.40+/−0.14. Further, the “TEWL after tape strips” value with hairless mice [2] (setting [10]) was 55-60 g/m^2/h; with hairless mice [2] (three sequential tape-strippings, fatty acid co-applied with MJ33) it was 30-35 g/m^2/h. In addition, the protein lost entry in the series with hairless mice [3] (setting [10]) is reported as “about 40 μg protein/cm^2”; in the series with hairless mice [3] (three strippings, fatty acid co-applied with MJ33) it was “about 30 μg/cm^2”.

On to `O=C(CBr)c1ccc(Br)cc1` [BPB, bromphenacyl bromide], for which the “pH of the stratum corneum” value was 6.28+/−0.1 in the series on hairless mice [1] (BPB alone, comparison with LA co-application); 5.92+/−0.05 with hairless mice [1] (BPB alone, comparison with PA co-application); 6.17+/−0.08 with hairless mice [1] (BPB alone, comparison with SA co-application). In the series with hairless mice [1] (BPB three days, before buffer), the “surface pH of BPB treated sites before buffer exposure” value was about 5.95 pH. For the same molecule, in the series with hairless mice [1] (BPB three days, then neutral buffer (pH 7.4) three hours), the “surface pH” value is given as about 6.41 pH. The “pH of the skin” value with hairless mice [1] (after one day, 4 mg/mL topical twice daily) is on record as about 6.0 pH. The “average pH of treated sites” value with hairless mice [1] (day 3, 4 mg/mL topical twice daily) is recorded as about 6.4 pH. Further, the “TEWL before buffer exposure” value in the series with hairless mice [4] (BPB three days, before neutral buffer) is recorded as “about 10 g/m^2/h”. For the same molecule, the barrier function entry in the series on hairless mice [4] (BPB three days, then acidic buffer three hours) is recorded as “remained unchanged”. The TEWL entry is given as “about 18 g/m^2/h” in the series with hairless mice [4] (BPB three days, then neutral buffer three hours); about 11 g/m^2/h with hairless mice [4] (day three of treatment); about 6 g/m^2/h in the series with hairless mice [4] (day two of treatment). The “TEWL after tape strippings” value is recorded as “less than 30 g/m^2/h” in the series on hairless mice [2] (BPB treated sites then acidic buffer, three sequential strippings) and “more than 60 g/m^2/h” with hairless mice [2] (BPB treated sites then neutral buffer, three sequential strippings). Moreover, in the series on hairless mice [2] (fifth strip, BPB alone (Example 5)), the “TEWL after tape strips” value is 80-100 g/m^2/ h. For the same molecule, the “TEWL after tape stripping” value is recorded as about 90 g/m^2/h in the series on hairless mice [2] (fifth strip, after three days of treatment (Example 1)) and about 20 g/m^2/h in the series on hairless mice [2] (second strip, after three days of treatment). The protein removed in the series on hairless mice [3] (after five strips (Example 1)) was 85-90 μg/cm^2. Moreover, the “protein removed per D-Squame stripping” value in the series with hairless mice [3] (first strip, after three days of treatment) is “about 20 μg/cm^2”. The protein lost result with hairless mice [3] (five sequential tape-strippings, BPB alone (Example 5)) was “about 125 μg protein/cm^2”. In addition, the “density of desmosomes in the lower stratum corneum and at the stratum corneum-stratum granulosum interface” value with murine skin [5] was “dramatic reduction”. For the same molecule, the “density of DSG1 positive clusters” value in the series on murine skin [5] (laser confocal microscopy, lower stratum corneum) is “decline dramatically”. Moreover, in the series with murine skin [6], the “toxicity of the doses employed” value is recorded as “non-toxic”.

`CCCCC/C=C\C/C=C\CCCCCCCC(=O)O` [linoleic acid]: the “pH of the stratum corneum” value with hairless mice [1] (setting [9]) was 5.77+/−0.10.

For `CS(=O)(=O)c1cc(C(=O)NC(=N)N)ccc1N1CCCCC1` [HOE694, 3-methylsulfonyl-4-piperidino-benzoylguanidinemethanesulfonate], the “intracellular pH” value at NHE1 antiporter (1.5 μM for 16 hours, from pH 7.05) is listed as 6.90 pH. For the same molecule, the “stratum corneum pH relative to initial post-tape-strip value” was “more than 0.1 pH units” with murine skin [7] (2 hours post-tape-strip, pH 5.5 HEPES buffer); “more than 0.05 pH units” in the series with murine skin [7] (5 hours post-tape-strip, pH 5.5 HEPES buffer); “persisted and even increased” in the series with murine skin [7] (five hours post-tape-strip, pH 7.4 buffer). Also, in the series on murine skin [7] (in pH 5.5 buffer, vs pH 5.5 buffer alone), the “initial post-tape-strip pH value” was “increased significantly”. For the same molecule, the “stratum corneum pH above that of skin exposed to pH 7.4 buffer alone” value in the series on murine skin [7] (two hours post-tape-strip, in pH 7.4 buffer) is about 0.05 pH units. Also, in the series with murine skin [7] (two hours post-tape-strip, pH 7.4 buffer), the “stratum corneum pH increase over initial post-tape-strip value” is over 0.1 pH units. In addition, the “lamellar body formation and extracellular processing of secreted lipids” value in the series on mouse skin (in pH 5.5 buffer) is given as “appeared normal”. In addition, the “extracellular processing of secreted lipids” value with mouse skin (in pH 7.4 buffer) is “defective”. In addition, in the series with mouse skin (in pH 7.4 buffer), the “lamellar body formation and secretion” value is “undisturbed”. Also, the “percent barrier recovery (TEWL rate less than initial induced rate)” value in the series on hairless mice [8] (2 hours post tape-strip, in pH 5.5 buffer, buffer alone 28%) is reported as 25%; with hairless mice [8] (5 hours post tape-strip, in pH 5.5 buffer) it was 38%; in the series with hairless mice [8] (24 hours post tape-strip, in pH 5.5 buffer) it was 75%; with hairless mice [8] (24 hours post tape-strip, in pH 7.4 buffer, buffer alone 75%), “about 45%”; with hairless mice [8] (setting [11]) it was 23%; in the series with hairless mice [8] (setting [12]) it was “about 12%”. Further, in the series with hairless mice [8], the “barrier recovery after tape-stripping” value was “delayed barrier recovery”.

Take `N=C(N)NC(=O)c1nc(Cl)c(N)nc1N` [amiloride, N-Amido-3,5-diamino-6-chloropyrazinecarboxamide]: the “effect after wash out period” value on NHE1 antiporter (FIG. 1 (D), recovery from acid load after wash out) was “non-permanent, non-toxic effect”. Moreover, in the series with hairless mice [8], the “barrier recovery after tape-stripping” value is “delayed barrier recovery”. Besides, the “percent barrier recovery (TEWL rate less than initial induced rate)” value in the series on hairless mice [8] (setting [11]) is “about 25%”; in the series on hairless mice [8] (setting [12]), “about 12%”.
